Assay results published in PMC6934184, “Selective DNA-PKcs inhibition extends the therapeutic index of localized radiotherapy and chemotherapy” (The Journal of Clinical Investigation, 2019).

Molecular target: T1, MET M1250T (Homo sapiens, UniProt P08581, M1250T)
T1 construct: purchased Thermo Fisher Scientific (Life Technologies) SelectScreen
Assay: SelectScreen Z'LYTE
Type: biochemical
How it was run: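 SelectScreen broad panel; activity (Z'LYTE, Adapta) plus binding formats. ATP: Km app for CSF1R Z'LYTE; 10 for CAMK1 Adapta. Readout = % per kinase.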

T1 sequence (P08581 25-1390 M1250T): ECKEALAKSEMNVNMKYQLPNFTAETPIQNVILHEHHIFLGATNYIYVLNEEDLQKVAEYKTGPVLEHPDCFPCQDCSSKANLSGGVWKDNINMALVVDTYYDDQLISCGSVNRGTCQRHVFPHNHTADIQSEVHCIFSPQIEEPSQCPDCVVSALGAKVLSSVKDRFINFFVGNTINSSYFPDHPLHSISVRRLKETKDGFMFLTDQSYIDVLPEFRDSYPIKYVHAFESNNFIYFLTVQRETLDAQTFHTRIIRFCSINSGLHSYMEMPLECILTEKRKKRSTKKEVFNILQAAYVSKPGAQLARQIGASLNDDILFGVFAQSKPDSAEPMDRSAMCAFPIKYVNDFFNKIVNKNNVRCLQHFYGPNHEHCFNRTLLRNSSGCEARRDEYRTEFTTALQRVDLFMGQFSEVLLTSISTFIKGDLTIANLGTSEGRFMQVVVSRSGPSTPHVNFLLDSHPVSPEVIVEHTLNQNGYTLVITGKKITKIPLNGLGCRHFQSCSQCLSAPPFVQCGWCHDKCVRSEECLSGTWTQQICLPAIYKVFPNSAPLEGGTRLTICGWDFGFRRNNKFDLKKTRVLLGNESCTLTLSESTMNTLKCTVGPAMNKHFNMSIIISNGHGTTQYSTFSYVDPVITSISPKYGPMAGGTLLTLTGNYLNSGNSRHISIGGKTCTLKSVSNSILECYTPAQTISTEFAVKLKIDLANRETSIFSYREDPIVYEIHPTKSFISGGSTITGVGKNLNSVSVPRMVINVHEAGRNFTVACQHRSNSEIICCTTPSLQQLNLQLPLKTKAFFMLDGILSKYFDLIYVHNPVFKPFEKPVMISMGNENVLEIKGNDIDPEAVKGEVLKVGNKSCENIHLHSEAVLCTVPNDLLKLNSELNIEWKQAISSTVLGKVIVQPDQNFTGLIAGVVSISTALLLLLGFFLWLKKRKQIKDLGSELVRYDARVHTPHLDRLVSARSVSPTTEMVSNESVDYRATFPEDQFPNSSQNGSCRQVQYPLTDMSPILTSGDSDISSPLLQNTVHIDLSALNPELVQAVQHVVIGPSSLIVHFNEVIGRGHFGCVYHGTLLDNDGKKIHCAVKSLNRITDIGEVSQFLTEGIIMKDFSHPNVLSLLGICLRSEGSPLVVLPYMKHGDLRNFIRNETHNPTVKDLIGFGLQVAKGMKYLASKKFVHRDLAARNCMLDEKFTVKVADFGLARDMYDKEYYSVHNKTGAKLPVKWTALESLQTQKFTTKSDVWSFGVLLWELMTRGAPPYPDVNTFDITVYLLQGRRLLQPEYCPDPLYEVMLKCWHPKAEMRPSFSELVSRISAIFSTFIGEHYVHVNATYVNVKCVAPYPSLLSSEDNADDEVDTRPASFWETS

Molecule `CN(C(=O)CN1CCOCC1)c1ccc2sc3c(-c4cccc5c(=O)cc(N6CC7CCC(C6)O7)oc45)cccc3c2c1` [NU5455] has an inhibition at 1 µM of -14.5%.
